Square brackets hold non-standard residues; d marks the D form. Peptide text beside a SMILES is read from it. NMeF = CN[C@@H](Cc1ccccc1)C(=O)O; NMeI = CC[C@H](C)[C@H](NC)C(=O)O; NMeL = CN[C@@H](CC(C)C)C(=O)O; NMeS = CN[C@@H](CO)C(=O)O; Sar = CNCC(=O)O
How the values were obtained:
[1] = Apparent permeability across human Caco2 cells at 50 uM after 90 mins by LC-MS analysis; assay type: ADME, cell-based; details: caco-2, 1.5 h
[2] = Apparent permeability of the compound at 50 uM after 5 hrs by PAMPA; assay type: ADME
[3] = test system: Caco-2; assay: Cytotoxicity against human Caco2 cells at 0.5 to 64 uM after 2 hrs by resazurin dye based fluorescence assay; assay type: cell-based; details: caco-2, 2 h
[4] = Inhibition of porcine pepsin using EDANS-DABCYL as substrate pretreated for 5 mins followed by substrate addition measured for 5 mins by spectrophotometric method; set-up: species or system Sus scrofa

SMILES	Papp [1]	Papp [2]	IC50 [4] [nM]	Activity [3]
CC[C@H](C)[C@@H]1NC(=O)[C@H]([C@@H](C)O)NC(=O)CNC(=O)CNC(=O)[C@H](Cc2ccccc2)NC(=O)CNC(=O)[C@H](Cc2ccccc2)NC(=O)[C@H]([C@@H](C)CC)NC1=O (cyclo(FGFGGTII))	Impermeable	Impermeable		Non-Toxic
CC[C@H](C)[C@@H]1NC(=O)CNC(=O)[C@H](CC(C)C)NC(=O)[C@H]([C@@H](C)CC)NC(=O)[C@H]([C@@H](C)CC)NC(=O)[C@H](CO)NC(=O)CN(C)C(=O)[C@H](CC(C)C)NC1=O (cyclo(GIL[Sar]SIIL))	Impermeable	Impermeable		
CC(C)C[C@@H]1NC(=O)CNC(=O)[C@@H]2CCCN2C(=O)CNC(=O)[C@H](Cc2c[nH]c3ccccc23)NC(=O)[C@H](CC(C)C)NC(=O)[C@H](CC(N)=O)NC(=O)[C@H](CC(C)C)NC1=O (cyclo(GLLNLWGP))	Impermeable	Impermeable	900	Non-Toxic
CC[C@H](C)[C@@H]1NC(=O)[C@H]([C@@H](C)CC)N(C)C(=O)[C@H](CO)NC(=O)CN(C)C(=O)[C@H](CC(C)C)N(C)C(=O)[C@H]([C@@H](C)CC)NC(=O)CN(C)C(=O)[C@H](CC(C)C)NC1=O (cyclo(IL[Sar]I[NMeL][Sar]S[NMeI]))	Impermeable	Permeable		
CC[C@H](C)[C@@H]1NC(=O)CNC(=O)[C@H](CC(C)C)NC(=O)[C@H]([C@@H](C)CC)NC(=O)[C@H]([C@@H](C)CC)NC(=O)[C@H](CO)N(C)C(=O)CN(C)C(=O)[C@H](CC(C)C)NC1=O (cyclo(GIL[Sar][NMeS]IIL))	Impermeable	Impermeable		
CC[C@H](C)[C@@H]1NC(=O)[C@H]([C@@H](C)O)NC(=O)CN(C)C(=O)CN(C)C(=O)[C@H](Cc2ccccc2)NC(=O)CN(C)C(=O)[C@H](Cc2ccccc2)N(C)C(=O)[C@H]([C@@H](C)CC)NC1=O (cyclo(F[Sar][Sar]TII[NMeF][Sar]))	Impermeable	Impermeable		

Further lines, with some results ahead:

Papp [1]	Papp [2]	IC50 [4] [nM]	SMILES	Activity [3]
Impermeable	Impermeable		CC[C@H](C)[C@@H]1NC(=O)[C@H]([C@@H](C)O)NC(=O)CN(C)C(=O)CNC(=O)[C@H](Cc2ccccc2)NC(=O)CNC(=O)[C@H](Cc2ccccc2)N(C)C(=O)[C@H]([C@@H](C)CC)N(C)C1=O (cyclo(FG[Sar]TI[NMeI][NMeF]G))	
Impermeable	Impermeable		CC[C@H](C)[C@@H]1NC(=O)[C@H]([C@@H](C)O)NC(=O)CN(C)C(=O)CNC(=O)[C@H](Cc2ccccc2)NC(=O)CNC(=O)[C@H](Cc2ccccc2)N(C)C(=O)[C@H]([C@@H](C)CC)NC1=O (cyclo(FG[Sar]TII[NMeF]G))	
Impermeable	Impermeable		CC[C@H](C)[C@@H]1NC(=O)CNC(=O)[C@H](CC(C)C)NC(=O)[C@H]([C@@H](C)CC)NC(=O)[C@H]([C@@H](C)CC)NC(=O)[C@H](CO)N(C)C(=O)CNC(=O)[C@H](CC(C)C)NC1=O (cyclo(GILG[NMeS]IIL))	
Impermeable	Impermeable		CC[C@H](C)[C@@H]1NC(=O)CNC(=O)[C@H](CC(C)C)NC(=O)[C@H]([C@@H](C)CC)NC(=O)[C@H]([C@@H](C)CC)NC(=O)[C@H](CO)NC(=O)CNC(=O)[C@H](CC(C)C)NC1=O (cyclo(GILGSIIL))	Non-Toxic
